According to PubChem BioAssay (NCI):
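Results reflect a 48-hour exposure of cells in 96-well plates to compound at five concentrations. The concentration for full growth arrest is given as TGI.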

Legend:
Test in all cases: NCI tumour cell line growth inhibition, 48 h
CCRF-CEM leukemia = system: CCRF-CEM leukemia
OVCAR-4 ovarian = system: OVCAR-4 ovarian
SK-MEL-5 melanoma = system: SK-MEL-5 melanoma
SK-MEL-28 melanoma = system: SK-MEL-28 melanoma
KM20L2 colon = system: KM20L2 colon
SF-268 CNS = system: SF-268 CNS
A549 NSCLC = system: A549 NSCLC
EKVX NSCLC = system: EKVX NSCLC
M14 melanoma = system: M14 melanoma
LXFL 529 NSCLC = system: LXFL 529 NSCLC
SNB-78 CNS = system: SNB-78 CNS
DMS 114 small cell lung = system: DMS 114 small cell lung
MALME-3M melanoma = system: MALME-3M melanoma
COLO 205 colon = system: COLO 205 colon
KM12 colon = system: KM12 colon
SF-295 CNS = system: SF-295 CNS
SK-OV-3 ovarian = system: SK-OV-3 ovarian
SK-MEL-2 melanoma = system: SK-MEL-2 melanoma
HCC-2998 colon = system: HCC-2998 colon
HL-60(TB) leukemia = system: HL-60(TB) leukemia
HOP-62 NSCLC = system: HOP-62 NSCLC
HOP-92 NSCLC = system: HOP-92 NSCLC
OVCAR-3 ovarian = system: OVCAR-3 ovarian
RPMI-8226 leukemia = system: RPMI-8226 leukemia
MOLT-4 leukemia = system: MOLT-4 leukemia
K-562 leukemia = system: K-562 leukemia
DMS 273 small cell lung = system: DMS 273 small cell lung
NCI-H226 lung = system: NCI-H226 lung
SNB-75 CNS = system: SNB-75 CNS
SW-620 colon = system: SW-620 colon
HT29 colon = system: HT29 colon
ACHN renal = system: ACHN renal
SR leukemia = system: SR leukemia
OVCAR-8 ovarian = system: OVCAR-8 ovarian
U251 CNS = system: U251 CNS
IGROV1 ovarian = system: IGROV1 ovarian
HCT-116 colon = system: HCT-116 colon
786-0 renal = system: 786-0 renal
M19-MEL melanoma = system: M19-MEL melanoma
SNB-19 CNS = system: SNB-19 CNS
RXF 393 renal = system: RXF 393 renal
HOP-18 NSCLC = system: HOP-18 NSCLC
UACC-62 melanoma = system: UACC-62 melanoma
OVCAR-5 ovarian = system: OVCAR-5 ovarian
NCI-H23 lung = system: NCI-H23 lung
UACC-257 melanoma = system: UACC-257 melanoma
NCI-H460 lung = system: NCI-H460 lung
CAKI-1 renal = system: CAKI-1 renal
SN12C renal = system: SN12C renal
A498 renal = system: A498 renal
UO-31 renal = system: UO-31 renal
LOX IMVI melanoma = system: LOX IMVI melanoma
NCI-H522 lung = system: NCI-H522 lung
RXF-631 renal = system: RXF-631 renal
HCT-15 colon = system: HCT-15 colon
XF 498 CNS = system: XF 498 CNS
TK-10 renal = system: TK-10 renal
SF-539 CNS = system: SF-539 CNS
DLD-1 colon = system: DLD-1 colon
MDA-N = system: MDA-N
MDA-MB-231 breast = system: MDA-MB-231 breast
PC-3 prostate = system: PC-3 prostate
HS 578T breast = system: HS 578T breast
MCF7 breast = system: MCF7 breast
SN12K1 renal = system: SN12K1 renal
NCI/ADR-RES ovarian = system: NCI/ADR-RES ovarian
P388/ADR leukemia = system: P388/ADR leukemia
DU-145 prostate = system: DU-145 prostate
T-47D breast = system: T-47D breast
P388 leukemia = system: P388 leukemia
MDA-MB-435 = system: MDA-MB-435
BT-549 breast = system: BT-549 breast

SMILES: COC(=O)C(CCS(=O)(=O)CC(=O)C(=O)Nc1cccc(C(C)=O)c1)C(=O)OC
- TGI (CCRF-CEM leukemia): > 65.5 µM
- TGI (OVCAR-4 ovarian): > 100 µM
- TGI (SK-MEL-5 melanoma): > 100 µM
- TGI (SK-MEL-28 melanoma): > 100 µM
- TGI (KM20L2 colon): > 100 µM
- TGI (SF-268 CNS): > 100 µM
- TGI (A549 NSCLC): > 100 µM
- TGI (EKVX NSCLC): > 100 µM
- TGI (M14 melanoma): > 100 µM
- TGI (LXFL 529 NSCLC): > 100 µM
- TGI (SNB-78 CNS): > 100 µM
- TGI (DMS 114 small cell lung): > 55.2 µM
- TGI (MALME-3M melanoma): > 100 µM
- TGI (COLO 205 colon): > 94.2 µM
- TGI (KM12 colon): > 100 µM
- TGI (SF-295 CNS): > 100 µM
- TGI (SK-OV-3 ovarian): > 100 µM
- TGI (SK-MEL-2 melanoma): > 100 µM
- TGI (HCC-2998 colon): > 100 µM
- TGI (HL-60(TB) leukemia): > 100 µM
- TGI (HOP-62 NSCLC): > 100 µM
- TGI (HOP-92 NSCLC): > 100 µM
- TGI (OVCAR-3 ovarian): > 100 µM
- TGI (RPMI-8226 leukemia): > 69.4 µM
- TGI (MOLT-4 leukemia): > 100 µM
- TGI (K-562 leukemia): > 100 µM
- TGI (DMS 273 small cell lung): > 100 µM
- TGI (NCI-H226 lung): > 100 µM
- TGI (SNB-75 CNS): > 100 µM
- TGI (SW-620 colon): > 100 µM
- TGI (HT29 colon): > 100 µM
- TGI (ACHN renal): > 100 µM
- TGI (SR leukemia): 50 µM
- TGI (OVCAR-8 ovarian): > 100 µM
- TGI (U251 CNS): > 100 µM
- TGI (IGROV1 ovarian): > 100 µM
- TGI (HCT-116 colon): > 100 µM
- TGI (786-0 renal): > 100 µM
- TGI (M19-MEL melanoma): > 100 µM
- TGI (SNB-19 CNS): > 100 µM
- TGI (RXF 393 renal): > 100 µM
- TGI (HOP-18 NSCLC): > 100 µM
- TGI (UACC-62 melanoma): > 100 µM
- TGI (OVCAR-5 ovarian): > 100 µM
- TGI (NCI-H23 lung): > 100 µM
- TGI (UACC-257 melanoma): > 100 µM
- TGI (NCI-H460 lung): > 92 µM
- TGI (CAKI-1 renal): > 100 µM
- TGI (SN12C renal): > 100 µM
- TGI (A498 renal): > 100 µM
- TGI (UO-31 renal): > 100 µM
- TGI (LOX IMVI melanoma): > 100 µM
- TGI (NCI-H522 lung): > 100 µM
- TGI (RXF-631 renal): > 100 µM
- TGI (HCT-15 colon): > 100 µM
- TGI (XF 498 CNS): > 100 µM
- TGI (TK-10 renal): > 100 µM
- TGI (SF-539 CNS): > 100 µM
- TGI (DLD-1 colon): > 100 µM

SMILES: O=P1(N(CCCl)CCCl)NCCCO1 (stereo unspecified)
- TGI (MDA-N): > 250 µM
- TGI (CCRF-CEM leukemia): 213 µM
- TGI (OVCAR-4 ovarian): > 250 µM
- TGI (SK-MEL-5 melanoma): > 250 µM
- TGI (SK-MEL-28 melanoma): > 250 µM
- TGI (KM20L2 colon): > 250 µM
- TGI (SF-268 CNS): > 250 µM
- TGI (A549 NSCLC): > 239 µM
- TGI (EKVX NSCLC): > 250 µM
- TGI (M14 melanoma): > 250 µM
- TGI (LXFL 529 NSCLC): > 250 µM
- TGI (SNB-78 CNS): > 216 µM
- TGI (DMS 114 small cell lung): > 250 µM
- TGI (MALME-3M melanoma): > 250 µM
- TGI (COLO 205 colon): > 250 µM
- TGI (KM12 colon): > 238 µM
- TGI (SF-295 CNS): > 246 µM
- TGI (SK-OV-3 ovarian): > 250 µM
- TGI (MDA-MB-231 breast): > 250 µM
- TGI (SK-MEL-2 melanoma): > 238 µM
- TGI (HCC-2998 colon): > 205 µM
- TGI (HL-60(TB) leukemia): 220 µM
- TGI (PC-3 prostate): > 250 µM
- TGI (HOP-62 NSCLC): > 250 µM
- TGI (HOP-92 NSCLC): > 250 µM
- TGI (HS 578T breast): > 250 µM
- TGI (MCF7 breast): > 250 µM
- TGI (OVCAR-3 ovarian): > 250 µM
- TGI (RPMI-8226 leukemia): > 250 µM
- TGI (MOLT-4 leukemia): > 250 µM
- TGI (K-562 leukemia): > 230 µM
- TGI (DMS 273 small cell lung): > 250 µM
- TGI (NCI-H226 lung): > 250 µM
- TGI (SNB-75 CNS): > 250 µM
- TGI (SN12K1 renal): > 250 µM
- TGI (SW-620 colon): > 250 µM
- TGI (HT29 colon): > 231 µM
- TGI (ACHN renal): > 250 µM
- TGI (NCI/ADR-RES ovarian): > 250 µM
- TGI (SR leukemia): > 250 µM
- TGI (OVCAR-8 ovarian): > 238 µM
- TGI (P388/ADR leukemia): > 229 µM
- TGI (U251 CNS): > 250 µM
- TGI (DU-145 prostate): > 250 µM
- TGI (IGROV1 ovarian): > 239 µM
- TGI (HCT-116 colon): > 250 µM
- TGI (786-0 renal): > 250 µM
- TGI (M19-MEL melanoma): > 250 µM
- TGI (SNB-19 CNS): > 250 µM
- TGI (T-47D breast): > 250 µM
- TGI (RXF 393 renal): > 250 µM
- TGI (HOP-18 NSCLC): 150 µM
- TGI (UACC-62 melanoma): > 250 µM
- TGI (OVCAR-5 ovarian): > 238 µM
- TGI (P388 leukemia): > 250 µM
- TGI (NCI-H23 lung): > 250 µM
- TGI (UACC-257 melanoma): > 250 µM
- TGI (NCI-H460 lung): > 238 µM
- TGI (CAKI-1 renal): > 191 µM
- TGI (SN12C renal): > 250 µM
- TGI (A498 renal): > 250 µM
- TGI (MDA-MB-435): > 250 µM
- TGI (UO-31 renal): > 250 µM
- TGI (LOX IMVI melanoma): > 250 µM
- TGI (BT-549 breast): > 250 µM
- TGI (NCI-H522 lung): > 250 µM
- TGI (RXF-631 renal): > 250 µM
- TGI (HCT-15 colon): > 250 µM
- TGI (XF 498 CNS): 180 µM
- TGI (TK-10 renal): > 250 µM
- TGI (SF-539 CNS): > 250 µM
- TGI (DLD-1 colon): > 250 µM
